Measurements reported in US20130287688A1, “NOVEL COMPOSITIONS AND USES OF ANTI-HYPERTENSION AGENTS FOR CANCER THERAPY” (XTUIT PHARMACEUTICALS, INC., priority 2010, published 2013).

Experiments:
Mu89 tumors = assay: Distribution of intratumorally injected 100 nm nanoparticles; type: in vivo, mice; conditions: 100 nm diameter nanoparticles
Description: (§1) Based on the previous studies on the tumor interstitial matrix (Pluen A, et al. (2001) Proc Natl Acad Sci USA 98:4628-4633 and Brown E, et al. (2003) Nat Med 9:796-800), the inventors then sought to determine if a decrease in collagen content by Losartan can improve the intratumoral distribution of nanoparticles. The inventors therefore measured the intratumoral distribution of fluorescent polystyrene nanoparticles (100 nm diameter) in three different tumor types—HSTS26T, Mu89, and L3.6 pl—after an i.t. or i.v. injection. In mice injected i.t. with nanoparticles, losartan improved nanoparticle accumulation and penetration in the tumor center (FIG. 8A; HSTS26T p<0.001, Mu89 p<0.001). Conversely, there was little or no nanoparticle accumulation in the center of control tumors. Most of the injected nanoparticles in control tumors were found in the tumor margin and around the needle insertion point (FIG. 8A). The inventors also determined the effects of losartan on the intratumoral distribution of oncolytic HSV.
(§2) Nanoparticles and oncolytic HSV were infused with a syringe pump (Harvard Apparatus Standard Pump 22, Holliston, Mass.) at a flow rate of 4 μl/min. The inventors injected 10 μl of HSV (2.5×10^5 t.u.) expressing the green fluorescent protein (GFP), or 10 μl of fluorescent nanoparticles (diameter of […]; concentration of 1×10^13 nanoparticles/ml). […]

HSTS26T tumors [1] = assay: as above; type: in vivo, mice; conditions: 100 nm diameter nanoparticles
Description: as §1, §2

E0771 tumors [2] = assay: Solid stress (tumor opening technique); set-up: species or system mice; conditions: mouse, in vivo
Experimental: Solid stress was assessed using an ex vivo technique involving the measurement of the extent of tumor tissue relaxation (tumor opening relative to tumor diameter) following a stress-releasing incision, with larger openings indicating higher stress.
When the tumors reached a size of −1 cm in diameter, the mice were anesthetized. Subsequently, each tumor was excised, washed with Hanks' Balanced Salt Solution (HBSS) and its three dimensions were measured. Each tumor was cut along its longest axis, to a depth of 80% of its shortest dimension, using a scalpel. The tumors were allowed to relax for 10 minutes in HBSS to diminish any transient, poro-elastic responses. Afterwards, the opening resulting from the cut was measured at the middle of the cut at the surface of the tumor. Solid stress is proportional to the size of the opening relative to the size of the dimension perpendicular to the cut.

HSTS26T tumors [3] = assay: IgG diffusion by fluorescence recovery after photobleaching (FRAP); type: in vivo, SCID mice
Experimental: FIG. 9 is a bar graph showing the changes in diffusion coefficient in HSTS26T tumors after losartan treatment. The diffusion coefficient of IgG was measured in HSTS26T tumors implanted in the dorsal window chamber of SCID mice. Treated animals received (40 mg/kg/day) losartan by i.p. injection while control animals received saline.
Based on the previous studies on the tumor interstitial matrix (Pluen A, et al. (2001) Proc Natl Acad Sci USA 98:4628-4633 and Brown E, et al. (2003) Nat Med 9:796-800), the inventors then sought to determine if a decrease in collagen content by Losartan can improve the intratumoral distribution of nanoparticles. The inventors therefore measured the intratumoral distribution of fluorescent polystyrene nanoparticles (100 nm diameter) in three different tumor types—HSTS26T, Mu89, and L3.6 pl—after an i.t. or i.v. injection. […] The inventors also determined the effects of losartan on the intratumoral distribution of oncolytic HSV.
Mice with HSTS26T tumors implanted in a dorsal skin fold chamber were treated with i.p. injections of losartan (40 mg/kg/day) for 1 week. Fluorescence recovery after photobleaching (FRAP) measurements were done with a custom built multiphoton microscope based on a previously described protocol (Chauhan V P, et al. (2009) Biophys J 97:330-336). […] Matrix pore sizes were calculated using the SFA-FRAP data, using the equation […]

E0771 tumors [4] = assay: Tissue oxygenation by phosphorescence quenching microscopy; type: in vivo, mice; conditions: versus control tumors that become more hypoxic with time
Experimental: Oxygenation was then studied using phosphorescence quenching microscopy.
An oxygen-sensitive porphyrin, Oxyphor R2 (Oxygen Enterprises) was injected retro-orbitally 12 hrs prior to imaging, and was reinjected immediately prior to imaging along with 2MDa FITC-dextran (Sigma-Aldrich) for functional vascular tracing. A mosaic image of the tumor was collected, and oxygen was then measured in an evenly spaced 12×12 grid at four depths (60, 120, 180, and 240 μm) in the tumor. At each point in the grid, the phosphorescence lifetime of the probe was measured after each of several repeated brief intense pulses of 1020 nm laser light, and these lifetime measurements were combined. A two-component model was used to calculate the oxygen tension from each lifetime measurement, accounting for binding and quenching of the probe by both oxygen and proteins. The grid was then overlayed on the mosaic images to make an oxygen map.

HSTS26T tumors [5] = assay: Vascular density in tumors; conditions: in vivo

`CCCCc1nc(Cl)c(CO)n1Cc1ccc(-c2ccccc2-c2nn[nH]n2)cc1` [losartan] was tested, and the “increase in distribution of i.t.-injected nanoparticles” value (Mu89 tumors) was 4 fold, the “increase in distribution of i.t.-injected nanoparticles” value (HSTS26T tumors [1]) was 1.5 fold and the solid stress (E0771 tumors [2]) was “reduces solid stress”. For the same compound, the “diffusion coefficient of IgG” value (HSTS26T tumors [3]; 40 mg/kg/day i.p., multiphoton FRAP) was “significant increase”, the “mean interstitial matrix pore radius” value (HSTS26T tumors [3]; calculated from IgG diffusion data, control 9.91±0.43 nm) was 11.78±0.41 nm and the tissue oxygenation (E0771 tumors [4]) was “maintains the level of oxygenation”. The “tumor growth or vascular density” value (HSTS26T tumors [5]) was “did not affect”.
